Data taken from US9359487B2, “Plasticizers based on mixed esters of succinate” (Proviron Holding N.V., priority 2012, dated 2016).

Tests used:
Assay type in all cases: physicochemical
[1] = Volatility of pure plasticiser by thermal-gravimetrical analysis; conditions: 200° C./10 min, pure compound
[2] = Extraction of plasticiser in water from plastisole samples; conditions: plastisol, 50 phr plasticizer; for Extractions by H2O (Weight Difference %) 1 d: after 1 day; for Extractions by H2O (Weight Difference %) 7 d: after 7 days; for Extractions by H2O (Weight Difference %) dry: after drying the sample
Protocol: Various plastisoles were prepared on the basis of various plasticisers set forth in Table 1, according to the following formulae:
100 phr PVC (Vestolit B7021 ultra), 50 phr Plasticiser (Table 1), 3 phr ESBO (Drapex 39) (acting as anti-oxydans), 2 phr Ca/Zn stabiliser (Mark CZ 149).
Apart from the above, the viscosity property of the plastisole solution was determined after 24 h (viscosity vs. Shear) and the thickening was determined. Apart from this the extraction of the plasticiser in water (expressed as % weight gain/weight loss) after 1 day, 7 days were determined, as well as after drying the sample.

[3] = Volatility comparison of succinate and adipate ester (tests by the inventors); conditions: versus comparable adipate ester DEHA
[4] = Weight loss test (volatility) of transparent plastisole PVC film at 100° C.; conditions: for Volatile: Weight difference @ 100° C. After 4 days (%) / Volatile: Weight difference @ 100° C. After 7 days (%): transparent PVC film, 50 phr plasticiser; for delta vs. ref. (weight difference after 4 days) / delta vs. ref. (weight difference after 7 days): versus DINP
Protocol: Their plasticising behaviour is compared in a plastisole based transparent PVC film.
(flooring type, top layer): Solvin 382NG 100 phr (obtainable from Solvay S.A., Belgium), plasticiser 50 phr, Ca/Zn stabiliser (Baerostab NT 306) 2.5 phr (obtainable from the company Baerlocher).
The transparent film so formed is subjected to amongst others a weight loss test (volatility) at 100° C. for respectively 4 and 7 days. The plasticiser efficiency is determined by means of a hardness measurement. A measure for the compatibility of the plasticiser is the transparency.

Row | Compound | volatility compared to di-2-ethylhexyl-adipate (DEHA) [3] | Volatile: Weight difference @ 100° C. After 7 days (%) [4] [%] | delta vs. ref. (weight difference after 4 days) [4] | delta vs. ref. (weight difference after 7 days) [4] | Volatily plasticizer (weightloss [m %]) [1] [m %] | Extractions by H2O (Weight Difference %) 1 d [2] [%] | Extractions by H2O (Weight Difference %) 7 d [2] [%] | Extractions by H2O (Weight Difference %) dry [2] [%] | Volatile: Weight difference @ 100° C. After 4 days (%) [4] [%]
1 | CCCCC(CC)COC(=O)CCCCC(=O)OCC(CC)CCCC (centres unmarked) [DOA, Di-octyladepate] |  |  |  |  | −18.4 | 1 | 2.1 | 0.7 | 
2 | CC(C)CCCCCCOC(=O)c1ccccc1 [INB, Isononyl Benzoate] |  |  |  |  | −61.7 | 0.9 | 1.9 | 0.5 | 
3 | CCCCC(CC)COC(=O)c1ccc(C(=O)OCC(CC)CCCC)cc1 (centres unmarked) [DOTP, Di-octyltherephthalate] |  |  |  |  | −4.8 | 0.8 | 1.7 | 0.7 | 
4 | CC(C)CCCCCCOC(=O)c1ccccc1C(=O)OCCCCCCC(C)C [DINP, Di-isononylphthalate] |  | −4.00 |  |  | −4.3 | 0.8 | 1.8 | 0.7 | −2.30

More lines, main results first:

Row | volatility compared to di-2-ethylhexyl-adipate (DEHA) [3] | Volatile: Weight difference @ 100° C. After 7 days (%) [4] [%] | delta vs. ref. (weight difference after 4 days) [4] | delta vs. ref. (weight difference after 7 days) [4] | Compound | Volatily plasticizer (weightloss [m %]) [1] [m %] | Extractions by H2O (Weight Difference %) 1 d [2] [%] | Extractions by H2O (Weight Difference %) 7 d [2] [%] | Extractions by H2O (Weight Difference %) dry [2] [%] | Volatile: Weight difference @ 100° C. After 4 days (%) [4] [%]
5 | approximately twice as volatile |  |  |  | CCCCC(CC)COC(=O)CCC(=O)OCC(CC)CCCC (centres unmarked) [DEHSu, di-2-ethylhexyl-succinate] |  |  |  |  | 
6 |  | −17.60 | ×5.0 | ×4.4 | CCCCCC(CCC)COC(=O)CCC(=O)OCC(CCC)CCCCC (centres unmarked) [DPHS, di-(2-propylheptyl)succinate] |  |  |  |  | −11.50
7 |  | −24.50 | ×7.6 | ×6.1 | CC(C)CCCCCCOC(=O)CCC(=O)OCCCCCCC(C)C [DINS, diisononylsuccinate] |  |  |  |  | 
